The source of these data is publication PMC6630470, “Anomeric Spironucleosides of β-D-Glucopyranosyl Uracil as Potential Inhibitors of Glycogen Phosphorylase” (Molecules, 2019).

This assay has as its target T1, rabbit muscle glycogen phosphorylase b (RMGPb) (Oryctolagus cuniculus, UniProt P00489).
T1 construct: gene PYGM
T1 sequence (P00489 2-843): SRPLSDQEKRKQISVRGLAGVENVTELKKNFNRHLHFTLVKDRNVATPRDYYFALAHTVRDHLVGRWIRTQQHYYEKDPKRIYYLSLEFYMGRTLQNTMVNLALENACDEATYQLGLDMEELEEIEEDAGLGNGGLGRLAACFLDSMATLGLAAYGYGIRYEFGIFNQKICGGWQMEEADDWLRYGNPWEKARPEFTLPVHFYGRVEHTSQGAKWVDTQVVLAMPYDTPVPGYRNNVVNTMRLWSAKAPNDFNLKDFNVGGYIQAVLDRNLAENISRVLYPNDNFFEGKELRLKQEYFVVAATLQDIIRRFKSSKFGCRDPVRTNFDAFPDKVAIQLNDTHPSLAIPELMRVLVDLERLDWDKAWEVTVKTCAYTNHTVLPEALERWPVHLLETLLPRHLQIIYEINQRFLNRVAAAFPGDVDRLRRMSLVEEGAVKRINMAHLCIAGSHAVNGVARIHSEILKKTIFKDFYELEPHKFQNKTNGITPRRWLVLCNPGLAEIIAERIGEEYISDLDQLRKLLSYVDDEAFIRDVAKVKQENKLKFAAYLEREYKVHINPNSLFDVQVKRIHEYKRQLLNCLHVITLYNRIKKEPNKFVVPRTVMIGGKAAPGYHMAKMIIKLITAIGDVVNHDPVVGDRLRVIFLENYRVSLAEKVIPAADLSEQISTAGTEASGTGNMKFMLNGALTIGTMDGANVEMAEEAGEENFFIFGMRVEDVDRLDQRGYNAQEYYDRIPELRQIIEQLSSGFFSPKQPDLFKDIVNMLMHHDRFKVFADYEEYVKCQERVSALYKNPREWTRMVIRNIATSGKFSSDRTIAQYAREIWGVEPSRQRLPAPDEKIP
The assay is described as follows: enzyme kinetics in the direction of glycogen synthesis with purified, recrystallized RMGPb ([…] AMP, […] glycogen). Particulars: read-out: % inhibition at 1 mM. It is filed as biochemical.

What is called inhibition is the share of the control response that was lost under treatment. For the molecule `O=c1cc2n(c(=O)[nH]1)[C@]1(OC2)O[C@H](CO)[C@@H](O)[C@H](O)[C@H]1O` [4a, (3R,3′R,4′S,5′S,6′R)-3′,4′,5′-Trihydroxy-6′-(hydroxymethyl)-3′,4′,5′,6′-tetrahydrospiro[oxazolo[3,4-c]pyrimidine-3,2′-pyran]-5,7(1H,6H)-dione], the inhibition at 1000 µM was found to be 26%.
For the molecule `O=c1cc2n(c(=O)[nH]1)[C@@]1(OC2)O[C@H](CO)[C@@H](O)[C@H](O)[C@H]1O` [4b, (3S,3′R,4′S,5′S,6′R)-3′,4′,5′-Trihydroxy-6′-(hydroxymethyl)-3′,4′,5′,6′-tetrahydrospiro[oxazolo[3,4-c]pyrimidine-3,2′-pyran]-5,7(1H,6H)-dione], the inhibition at 1000 µM was 35%.
